What was measured:
[1] = xn = mol fraction of the nth substance listed; settings: 101.3 kPa, Liquid
[2] = relative permittivity at various frequencies (dimensionless); xn = mol fraction of the nth substance listed; settings: 101.3 kPa, Liquid, Frequency=1 MHz, HP4284A LCR Meter with HP16452A measuring cell

COCCOCCOCCOC [2,5,8,11-tetraoxadodecane] + CCCCCCCCCCCC
Settings	mass density, [1] [kg/m3]	relative permittivity, [2]
288.15 K, x1 = 0.0983	769.24	–
288.15 K, x1 = 0.0993	–	2.3
288.15 K, x1 = 0.1981	–	2.61
288.15 K, x1 = 0.2007	788.2	–
288.15 K, x1 = 0.2498	–	2.79
288.15 K, x1 = 0.2526	798.35	–
288.15 K, x1 = 0.2974	807.41	–
288.15 K, x1 = 0.3051	–	3.01
288.15 K, x1 = 0.396	–	3.4
288.15 K, x1 = 0.398	828.67	–
288.15 K, x1 = 0.5011	–	3.92
288.15 K, x1 = 0.5097	853.81	–
288.15 K, x1 = 0.5986	875.06	–
288.15 K, x1 = 0.5991	–	4.51
288.15 K, x1 = 0.6981	900.28	–
288.15 K, x1 = 0.7114	–	5.28
288.15 K, x1 = 0.7994	–	5.98
288.15 K, x1 = 0.8012	928.25	–
288.15 K, x1 = 0.8996	–	6.87
288.15 K, x1 = 0.9009	957.48	–
288.15 K, x1 = 0.9504	–	7.37
288.15 K, x1 = 0.951	973.13	–
293.15 K, x1 = 0.0989	765.55	–
293.15 K, x1 = 0.0992	–	2.3
293.15 K, x1 = 0.1969	783.56	–
293.15 K, x1 = 0.2005	–	2.6
293.15 K, x1 = 0.2488	793.6	–
293.15 K, x1 = 0.252	–	2.78
293.15 K, x1 = 0.2988	–	2.95
293.15 K, x1 = 0.3069	805.3	–
293.15 K, x1 = 0.3978	–	3.37
293.15 K, x1 = 0.4006	825.05	–
293.15 K, x1 = 0.5003	–	3.87
293.15 K, x1 = 0.5006	847.38	–
293.15 K, x1 = 0.5981	870.51	–
293.15 K, x1 = 0.6016	–	4.45
293.15 K, x1 = 0.698	–	5.08
293.15 K, x1 = 0.6989	895.89	–
293.15 K, x1 = 0.7963	922.13	–
293.15 K, x1 = 0.7995	–	5.85
293.15 K, x1 = 0.8997	–	6.73
293.15 K, x1 = 0.9032	953.28	–
293.15 K, x1 = 0.9492	–	7.2
293.15 K, x1 = 0.95	967.84	–
298.15 K, x1 = 0.088	–	2.25
298.15 K, x1 = 0.0984	761.73	–
298.15 K, x1 = 0.1995	780.21	–
298.15 K, x1 = 0.2006	–	2.58
298.15 K, x1 = 0.2494	–	2.74
298.15 K, x1 = 0.2511	790.16	–
298.15 K, x1 = 0.3005	800.04	–
298.15 K, x1 = 0.3046	–	2.95
298.15 K, x1 = 0.3988	820.63	–
298.15 K, x1 = 0.4127	–	3.4
298.15 K, x1 = 0.496	–	3.8
298.15 K, x1 = 0.4974	842.53	–
298.15 K, x1 = 0.5972	–	4.35
298.15 K, x1 = 0.598	866.25	–
298.15 K, x1 = 0.6987	–	4.98
298.15 K, x1 = 0.6997	891.79	–
298.15 K, x1 = 0.7954	917.48	–
298.15 K, x1 = 0.8028	–	5.76
298.15 K, x1 = 0.9014	948.24	–
298.15 K, x1 = 0.9022	–	6.61
298.15 K, x1 = 0.9504	–	7.07
298.15 K, x1 = 0.9513	963.73	–
303.15 K, x1 = 0.0987	758.05	–
303.15 K, x1 = 0.099	–	2.26
303.15 K, x1 = 0.1997	–	2.56
303.15 K, x1 = 0.2033	777	–
303.15 K, x1 = 0.2498	785.94	–
303.15 K, x1 = 0.2517	–	2.73
303.15 K, x1 = 0.2994	795.76	2.9
303.15 K, x1 = 0.3949	815.57	–
303.15 K, x1 = 0.3976	–	3.3
303.15 K, x1 = 0.4991	–	3.76
303.15 K, x1 = 0.5002	838.84	–
303.15 K, x1 = 0.5969	–	4.29
303.15 K, x1 = 0.5996	862.24	–
303.15 K, x1 = 0.6979	886.84	–
303.15 K, x1 = 0.699	–	4.94
303.15 K, x1 = 0.7996	914.11	–
303.15 K, x1 = 0.8015	–	5.69
303.15 K, x1 = 0.9015	943.66	–
303.15 K, x1 = 0.9058	–	6.55
303.15 K, x1 = 0.9494	–	6.96
303.15 K, x1 = 0.9509	958.94	–
308.15 K, x1 = 0.0988	–	2.25
308.15 K, x1 = 0.1	754.59	–
308.15 K, x1 = 0.1965	–	2.53
308.15 K, x1 = 0.1987	772.42	–
308.15 K, x1 = 0.2471	–	2.7
308.15 K, x1 = 0.2494	782.08	–
308.15 K, x1 = 0.2992	791.92	–
308.15 K, x1 = 0.307	–	2.91
308.15 K, x1 = 0.3968	812.1	–
308.15 K, x1 = 0.4071	–	3.31
308.15 K, x1 = 0.4983	–	3.73
308.15 K, x1 = 0.5058	836.19	–
308.15 K, x1 = 0.5976	857.76	–
308.15 K, x1 = 0.598	–	4.25
308.15 K, x1 = 0.6938	–	4.83
308.15 K, x1 = 0.6974	882.71	–
308.15 K, x1 = 0.7997	–	5.57
308.15 K, x1 = 0.7998	910.17	–
308.15 K, x1 = 0.9018	–	6.41
308.15 K, x1 = 0.9025	939.96	–
308.15 K, x1 = 0.9501	–	6.86
308.15 K, x1 = 0.9512	955.04	–
318.15 K, x1 = 0.0976	746.77	–
318.15 K, x1 = 0.0989	–	2.23
318.15 K, x1 = 0.1979	764.58	–
318.15 K, x1 = 0.2	–	2.51
318.15 K, x1 = 0.248	773.96	–
318.15 K, x1 = 0.249	–	2.66
318.15 K, x1 = 0.297	–	2.82
318.15 K, x1 = 0.3015	784.34	–
318.15 K, x1 = 0.3929	–	3.18
318.15 K, x1 = 0.4004	804.52	–
318.15 K, x1 = 0.5013	826.47	–
318.15 K, x1 = 0.5026	–	3.66
318.15 K, x1 = 0.6015	–	4.16
318.15 K, x1 = 0.6035	850.21	–
318.15 K, x1 = 0.6959	873.06	–
318.15 K, x1 = 0.7035	–	4.76
318.15 K, x1 = 0.7956	899.51	–
318.15 K, x1 = 0.7989	–	5.4
318.15 K, x1 = 0.9004	–	6.19
318.15 K, x1 = 0.9025	930.16	–
318.15 K, x1 = 0.949	944.39	–
318.15 K, x1 = 0.9505	–	6.62
328.15 K, x1 = 0.0988	–	2.23
328.15 K, x1 = 0.0996	739.48	–
328.15 K, x1 = 0.1986	–	2.49
328.15 K, x1 = 0.208	758.56	–
328.15 K, x1 = 0.2483	–	2.62
328.15 K, x1 = 0.2561	767.51	–
328.15 K, x1 = 0.3036	776.66	–
328.15 K, x1 = 0.3062	–	2.81
328.15 K, x1 = 0.3961	–	3.14
328.15 K, x1 = 0.3988	795.88	–
328.15 K, x1 = 0.4898	815.4	–
328.15 K, x1 = 0.4986	–	3.56
328.15 K, x1 = 0.596	–	4.03
328.15 K, x1 = 0.5972	839.96	–
328.15 K, x1 = 0.6906	862.83	–
328.15 K, x1 = 0.6969	–	4.61
328.15 K, x1 = 0.7914	–	5.22
328.15 K, x1 = 0.8023	892.19	–
328.15 K, x1 = 0.8935	–	5.99
328.15 K, x1 = 0.8988	919.73	–
328.15 K, x1 = 0.9494	–	6.44
328.15 K, x1 = 0.9518	935.78	–

Source: the NIST ThermoML archive (doi:10.1016/j.jct.2004.08.003)
